{"source": "paper PMC2190180", "about": "(The Journal of Experimental Medicine, 1976)", "key": {"[1]": {"tested_on": "rabbit peritoneal neutrophils", "experiment": "Assay of relative migratory", "assay_type": "cell-based", "settings": "for times as active as F-Met-Leu, experiment of Fig. 1: single representative experiment (Fig. 1); for activity relative to F-Met-Leu as stated in running text: rounded in text from Table II"}, "rabbit neutrophils [2]": {"tested_on": "rabbit neutrophils", "assay_type": "cell-based", "settings": "for induction of lysozyme release at highest concentrations: at concentrations of 1 x 10-~ M or higher (so in the source)"}, "rabbit neutrophils [3]": {"tested_on": "rabbit neutrophils", "assay_type": "cell-based", "settings": "for beta-Glucuronidase release Relative activity ± SE: Table III, relative to F-Met-Leu = 1.0; for induction of beta-glucuronidase release at highest concentrations: at concentrations of 1 x 10-~ M or higher (so in the source)"}, "[4]": {"tested_on": "rabbit peritoneal neutrophils", "settings": "cited from earlier work"}, "neutrophils": {"tested_on": "neutrophils", "settings": "appears competitive; cited from earlier work"}, "[5]": {"tested_on": "rabbit peritoneal neutrophils", "experiment": "Test of whether the peptides are chemotactic", "assay_type": "cell-based", "settings": "for nature of induced migration: directed as well as random locomotion"}}}
{"molecule": "F-Met-Met-Ala", "values": [{"measurement": "activity relative to F-Met-Met (Discussion)", "setting": "[1]; chemotactic activity", "result": "essentially the same"}, {"measurement": "activity relative to parent dipeptide F-Met-Met (Results)", "setting": "[1]; chemotactic activity", "result": "same activity"}]}
{"molecule": "Met-Phe-Leu", "values": [{"measurement": "induction of lysozyme release at highest concentrations", "setting": "rabbit neutrophils [2]", "result": "did not induce release"}, {"measurement": "beta-Glucuronidase release Relative activity ± SE", "setting": "rabbit neutrophils [3]", "result": "> 0.0001"}, {"measurement": "induction of beta-glucuronidase release at highest concentrations", "setting": "rabbit neutrophils [3]", "result": "did not induce release"}]}
{"molecule": "CC(C)C[C@H](NC=O)C(=O)O", "note": "[F-leucine]", "values": [{"measurement": "chemotactic activity", "setting": "[4]; not as active as F-methionine", "result": "chemotactic"}]}
{"molecule": "Met-Leu-Phe", "values": [{"measurement": "times as active as F-Met-Leu, experiment of Fig. 1", "setting": "[1]", "result": 0.43}]}
{"molecule": "Met-Met-Ala", "values": [{"measurement": "induction of lysozyme release at highest concentrations", "setting": "rabbit neutrophils [2]", "result": "did not induce release"}, {"measurement": "beta-Glucuronidase release Relative activity ± SE", "setting": "rabbit neutrophils [3]", "result": "> 0.0001"}, {"measurement": "induction of beta-glucuronidase release at highest concentrations", "setting": "rabbit neutrophils [3]", "result": "did not induce release"}]}
{"molecule": "Met-Leu-Glu", "values": [{"measurement": "times less active than F-Met-Leu-Phe", "setting": "[1]; induced migration and enzyme release", "result": 26, "unit": "million"}, {"measurement": "induction of lysozyme release at highest concentrations", "setting": "rabbit neutrophils [2]", "result": "did not induce release"}, {"measurement": "induction of beta-glucuronidase release at highest concentrations", "setting": "rabbit neutrophils [3]", "result": "did not induce release"}]}
{"molecule": "F-Met-Leu", "values": [{"measurement": "Lysozyme release Relative activity ± SE", "setting": "rabbit neutrophils [2]; Table III, relative to F-Met-Leu = 1.0", "result": 1}, {"measurement": "beta-Glucuronidase release Relative activity ± SE", "setting": "rabbit neutrophils [3]", "result": 1}, {"measurement": "effect on initial rates of erythrophagocytosis", "setting": "neutrophils", "result": "inhibit"}]}
{"molecule": "F-Met-Leu-Arg", "values": [{"measurement": "activity relative to F-Met-Leu as stated in running text", "setting": "[1]; chemotactic activity", "result": "one-third"}]}
{"molecule": "F-Met", "values": [{"measurement": "induction of lysozyme release at highest concentrations", "setting": "rabbit neutrophils [2]", "result": "did not induce release"}, {"measurement": "beta-Glucuronidase release Relative activity ± SE", "setting": "rabbit neutrophils [3]", "result": "> 0.00001"}, {"measurement": "induction of beta-glucuronidase release at highest concentrations", "setting": "rabbit neutrophils [3]", "result": "did not induce release"}]}
{"molecule": "F-Leu-Trp-Met-Arg", "values": [{"measurement": "drop in activity relative to F-Leu-Trp-Met", "setting": "[1]; chemotactic activity", "result": 40, "unit": "fold"}]}
{"molecule": "F-Met-His", "values": [{"measurement": "chemotactic activity compared with F-Met-Leu", "setting": "[4]", "result": "distinctly less active"}]}
{"molecule": "F-Met-Leu-Phe", "values": [{"measurement": "fold more active than the corresponding unformylated peptide", "setting": "[1]; chemotactic activity", "result": "approximately 10,000 fold"}, {"measurement": "activity relative to F-Met-Leu as stated in running text", "setting": "[1]; chemotactic activity", "result": "5,000 fold"}, {"measurement": "times as active as F-Met-Leu, experiment of Fig. 1", "setting": "[1]", "result": "7,300"}, {"measurement": "measured mean distance from top of filter to front two PMNs", "setting": "[5]; Table I A, uniform 1.66 x 10^-10 M above and below, 60 min 37C", "result": 71, "unit": "µm"}, {"measurement": "measured mean distance from top of filter to front two PMNs", "setting": "[5]; Table I A, uniform 1.85 x 10-11 M above and below, 60 min 37C", "result": 40, "unit": "µm"}, {"measurement": "measured mean distance from top of filter to front two PMNs", "setting": "[5]; Table I A, uniform 5 x 10^-10 M above and below, 60 min 37C", "result": 73, "unit": "µm"}, {"measurement": "measured mean distance from top of filter to front two PMNs", "setting": "[5]; Table I A, uniform 5.55 x 10-11 M above and below, 60 min 37C", "result": 60, "unit": "µm"}, {"measurement": "nature of induced migration", "setting": "[5]", "result": "truly chemotactic"}]}
{"molecule": "F-Met-Met-Met", "values": [{"measurement": "activity relative to parent dipeptide F-Met-Met (Results)", "setting": "[1]; chemotactic activity", "result": "120- to 150 fold"}, {"measurement": "fold more active than the corresponding unformylated peptide", "setting": "[1]; chemotactic activity", "result": "approximately 20,000 fold"}, {"measurement": "measured mean distance from top of filter to front two PMNs", "setting": "[5]; Table I B, above 10^-6 M, below 10^-6 M (uniform), 80 min 37C", "result": 56, "unit": "µm"}, {"measurement": "calculated distance for purely random migration (bracketed)", "setting": "[5]; Table I B, above 10^-6 M, below 10^-7 M", "result": 52, "unit": "µm"}, {"measurement": "measured mean distance from top of filter to front two PMNs", "setting": "[5]; Table I B, above 10^-6 M, below 10^-7 M, 80 min 37C", "result": 48, "unit": "µm"}, {"measurement": "calculated distance for purely random migration (bracketed)", "setting": "[5]; Table I B, above 10^-6 M, below 10^-8 M", "result": 52, "unit": "µm"}, {"measurement": "measured mean distance from top of filter to front two PMNs", "setting": "[5]; Table I B, above 10^-6 M, below 10^-8 M, 80 min 37C", "result": 34, "unit": "µm"}, {"measurement": "calculated distance for purely random migration (bracketed)", "setting": "[5]; Table I B, above 10^-6 M, below 10^-9 M", "result": 52, "unit": "µm"}, {"measurement": "measured mean distance from top of filter to front two PMNs", "setting": "[5]; Table I B, above 10^-6 M, below 10^-9 M, 80 min 37C", "result": 38, "unit": "µm"}, {"measurement": "calculated distance for purely random migration (bracketed)", "setting": "[5]; Table I B, above 10^-7 M, below 10^-6 M", "result": 38, "unit": "µm"}, {"measurement": "measured mean distance from top of filter to front two PMNs", "setting": "[5]; Table I B, above 10^-7 M, below 10^-6 M, 80 min 37C", "result": 60, "unit": "µm"}, {"measurement": "measured mean distance from top of filter to front two PMNs", "setting": "[5]; Table I B, above 10^-7 M, below 10^-7 M (uniform), 80 min 37C", "result": 34, "unit": "µm"}, {"measurement": "calculated distance for purely random migration (bracketed)", "setting": "[5]; Table I B, above 10^-7 M, below 10^-8 M", "result": 34, "unit": "µm"}, {"measurement": "measured mean distance from top of filter to front two PMNs", "setting": "[5]; Table I B, above 10^-7 M, below 10^-8 M, 80 min 37C", "result": 36, "unit": "µm"}, {"measurement": "calculated distance for purely random migration (bracketed)", "setting": "[5]; Table I B, above 10^-7 M, below 10^-9 M", "result": 33, "unit": "µm"}, {"measurement": "measured mean distance from top of filter to front two PMNs", "setting": "[5]; Table I B, above 10^-7 M, below 10^-9 M, 80 min 37C", "result": 34, "unit": "µm"}, {"measurement": "calculated distance for purely random migration (bracketed)", "setting": "[5]; Table I B, above 10^-8 M, below 10^-6 M", "result": 35, "unit": "µm"}, {"measurement": "measured mean distance from top of filter to front two PMNs", "setting": "[5]; Table I B, above 10^-8 M, below 10^-6 M, 80 min 37C", "result": 62, "unit": "µm"}, {"measurement": "calculated distance for purely random migration (bracketed)", "setting": "[5]; Table I B, above 10^-8 M, below 10^-7 M", "result": 30, "unit": "µm"}, {"measurement": "measured mean distance from top of filter to front two PMNs", "setting": "[5]; Table I B, above 10^-8 M, below 10^-7 M, 80 min 37C", "result": 47, "unit": "µm"}, {"measurement": "measured mean distance from top of filter to front two PMNs", "setting": "[5]; Table I B, above 10^-8 M, below 10^-8 M (uniform), 80 min 37C", "result": 30, "unit": "µm"}, {"measurement": "calculated distance for purely random migration (bracketed)", "setting": "[5]; Table I B, above 10^-8 M, below 10^-9 M", "result": 30, "unit": "µm"}, {"measurement": "measured mean distance from top of filter to front two PMNs", "setting": "[5]; Table I B, above 10^-8 M, below 10^-9 M, 80 min 37C", "result": 27, "unit": "µm"}, {"measurement": "calculated distance for purely random migration (bracketed)", "setting": "[5]; Table I B, above 10^-9 M, below 10^-6 M", "result": 35, "unit": "µm"}, {"measurement": "measured mean distance from top of filter to front two PMNs", "setting": "[5]; Table I B, above 10^-9 M, below 10^-6 M, 80 min 37C", "result": 69, "unit": "µm"}, {"measurement": "calculated distance for purely random migration (bracketed)", "setting": "[5]; Table I B, above 10^-9 M, below 10^-7 M", "result": 30, "unit": "µm"}, {"measurement": "measured mean distance from top of filter to front two PMNs", "setting": "[5]; Table I B, above 10^-9 M, below 10^-7 M, 80 min 37C", "result": 57, "unit": "µm"}, {"measurement": "calculated distance for purely random migration (bracketed)", "setting": "[5]; Table I B, above 10^-9 M, below 10^-8 M", "result": 27, "unit": "µm"}, {"measurement": "measured mean distance from top of filter to front two PMNs", "setting": "[5]; Table I B, above 10^-9 M, below 10^-8 M, 80 min 37C", "result": 30, "unit": "µm"}, {"measurement": "nature of induced migration", "setting": "[5]", "result": "truly chemotactic"}]}
{"molecule": "F-Met-Leu-Glu", "values": [{"measurement": "times as active as F-Met-Leu, experiment of Fig. 1", "setting": "[1]", "result": 0.71}]}
{"molecule": "F-Met-Phe-Leu", "values": [{"measurement": "fold more active than the corresponding unformylated peptide", "setting": "[1]; chemotactic activity", "result": "around 3,000 fold"}]}
{"molecule": "F-Met-Glu", "values": [{"measurement": "chemotactic activity compared with F-Met-Leu", "setting": "[4]", "result": "distinctly less active"}]}
{"molecule": "F-Met-Met-Phe", "values": [{"measurement": "activity relative to parent dipeptide F-Met-Met (Results)", "setting": "[1]; chemotactic activity", "result": "3,500-4,000 fold"}]}
{"molecule": "F-Met-Leu-Leu", "values": [{"measurement": "activity relative to F-Met-Leu as stated in running text", "setting": "[1]; chemotactic activity", "result": 9, "unit": "fold"}]}
{"molecule": "Met-Leu-Leu", "values": [{"measurement": "induction of lysozyme release at highest concentrations", "setting": "rabbit neutrophils [2]", "result": "did not induce release"}, {"measurement": "beta-Glucuronidase release Relative activity ± SE", "setting": "rabbit neutrophils [3]", "result": "> 0.0001"}, {"measurement": "induction of beta-glucuronidase release at highest concentrations", "setting": "rabbit neutrophils [3]", "result": "did not induce release"}]}
